ChEMBL document CHEMBL1149982, “Synthesis and in vitro profile of 7-substituted quinoline chromanols as novel, non-acidic LTB4 antagonists” (Bioorg Med Chem Lett, 1995)
pKi: −log10 of the molar value.

What was measured:
[1] = target: Leukotriene B4 receptor 1 (Homo sapiens, UniProt Q15722); assay: In vitro inhibitory activity against human neutrophil leukotriene B4 (LTB4)
[2] = target: T1, Cysteinyl leukotriene receptor 1 (Cavia porcellus, UniProt Q2NNR5); assay: In vitro inhibitory activity against leukotriene D4 receptor
T1 sequence (Q2NNR5 whole entry): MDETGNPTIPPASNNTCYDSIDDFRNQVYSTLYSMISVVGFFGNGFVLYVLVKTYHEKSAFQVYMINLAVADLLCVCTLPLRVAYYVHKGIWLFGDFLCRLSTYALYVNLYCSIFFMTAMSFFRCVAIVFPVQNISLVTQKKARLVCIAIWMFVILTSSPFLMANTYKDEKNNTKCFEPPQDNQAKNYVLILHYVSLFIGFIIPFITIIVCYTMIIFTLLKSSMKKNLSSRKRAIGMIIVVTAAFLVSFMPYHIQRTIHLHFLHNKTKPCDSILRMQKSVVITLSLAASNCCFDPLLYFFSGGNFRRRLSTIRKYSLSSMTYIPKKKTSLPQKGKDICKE

[3] = target: T1, Cysteinyl leukotriene receptor 1; assay: In vitro inhibitory activity against human leukotriene D4 (LTD4)

Leukotriene B4 receptor 1, sequence (Q15722 whole entry): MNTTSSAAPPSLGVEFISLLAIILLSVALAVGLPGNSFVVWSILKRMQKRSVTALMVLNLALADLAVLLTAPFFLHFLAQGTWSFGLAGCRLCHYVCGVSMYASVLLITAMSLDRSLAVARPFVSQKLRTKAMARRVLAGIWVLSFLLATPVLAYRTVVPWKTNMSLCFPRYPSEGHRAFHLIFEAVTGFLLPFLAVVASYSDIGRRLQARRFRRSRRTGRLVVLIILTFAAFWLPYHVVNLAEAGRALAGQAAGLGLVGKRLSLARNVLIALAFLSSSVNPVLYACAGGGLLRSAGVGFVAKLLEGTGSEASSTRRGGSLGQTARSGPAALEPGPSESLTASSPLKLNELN

pKi [1] | pKi [2] | pKi [3] | Compound
6.62 | < 4.30 | – | CC(Oc1ccc2c(c1)OC[C@@H](Cc1ccccn1)[C@@H]2O)c1ccc2ccccc2n1 (stereo partly specified)
5.72 | < 4.30 | – | C[C@H](Oc1ccc2c(c1)OC[C@@H](Cc1cccnc1)[C@@H]2O)c1ccc2ccccc2n1
– | 5.89 | – | O[C@@H]1c2ccc(OCc3ccc4ccccc4n3)cc2OC[C@@H]1Cc1cccnc1
– | 5.39 | – | O[C@@H]1c2ccc(OCc3ccc4ccccc4n3)cc2OC[C@H]1Cc1cccnc1
5.48 | < 4.30 | – | CC(Oc1ccc2c(c1)OC[C@H](Cc1ccccn1)[C@@H]2O)c1ccc2ccccc2n1 (stereo partly specified)
6.48 | < 4.30 | – | C[C@@H](Oc1ccc2c(c1)OC[C@@H](Cc1cccnc1)[C@@H]2O)c1ccc2ccccc2n1
4.42 | – | 5.80 | O[C@@H]1c2cc(OCc3ccc4ccccc4n3)ccc2OC[C@@H]1Cc1cccnc1
5.28 | < 4.30 | – | CC(Oc1ccc2c(c1)OC[C@H](Cc1cccnc1)[C@@H]2O)c1ccc2ccccc2n1 (stereo partly specified)
4.80 | 6.00 | – | O[C@@H]1c2cc(OCc3ccc4ccccc4n3)ccc2OC[C@H]1Cc1cccnc1
